Test results published in patent US4348264A, “Photocatalyzed process for producing carbapenams and carbapen-2-ems” (Pfizer Inc., priority 1981, dated 1982).
Values after ≈ are worked out from the molar mass of the structure shown. Where two headings read alike, the source gives them in different places.

Experiments:
Assay type in all cases: cell-based
Escherichia coli [1] = assay: Serial dilution-tube method, MIC; parameters: key to synergistic effect with ampicillin: Shows a synergistic effect when tested 1:1 with ampicillin; conditions: for MIC: Escherichia coli, brain heart infusion broth, read-out: Minimum Inhibitory Concentration
Pseudomonas aeruginosa = assay: Serial dilution-tube method, MIC; conditions: Pseudomonas aeruginosa; brain heart infusion broth; read-out: Minimum Inhibitory Concentration
[2] = test system: Staphylococcus aureus (Antibiotic Resistant); assay: Standard disc-plate method, zone of inhibition; conditions: Staphylococcus aureus; 25 microgram discs; antibiotic resistant
Description: (§1) The utility of the various compounds as intermediates to other compounds of the present invention will be evident from the preceding discussion. The antibacterial activity of these compounds, reflecting their utility in the control of susceptible bacterial infections in man and animals, as animal feed additives for promotion of growth, or as preservatives of materials biodegraded by susceptible microorganisms, is best measured by the standard disc-plate method routinely employed in clinical laboratories for determining the sensitivity of microorganisms to antimicrobial substances. Sensitivity discs are prepared by dipping a standard 6.25 mm. paper disc into a solution of the compound to be tested (conc. 1 mg./ml.) in a volatile solvent (e.g. methylene chloride) and the disc dried, producing discs containing approximately 25 microg. of the compound. The discs are placed on the surface of agar growth media seeded with the test microorganism, previously plated into Petri dishes. The plates are incubated overnight at 35°-37° C. Activity of the test compound is reflected by a zone of inhibition of bacterial growth around the test disc. The diameter of this zone provides a quantitative measure of the activity of the antibacterial substance. The activity of various compounds of the present invention is summarized in Table I. For comparison, results obtained with 10 microg. discs of ampicillin and penicillin G are included as positive controls.

Bacillus subtilis = assay: Standard disc-plate method, zone of inhibition; conditions: Bacillus subtilis; 25 microgram discs
Description: as §1

Micrococcus luteus = assay: Standard disc-plate method, zone of inhibition; conditions: Micrococcus luteus; 25 microgram discs
Description: as §1

Escherichia coli [3] = assay: Standard disc-plate method, zone of inhibition; conditions: Escherichia coli, 25 microgram discs
Description: as §1

[4] = test system: Staphylococcus aureus (Antibiotic Resistant); assay: Serial dilution-tube method, MIC; parameters: key to synergistic effect with ampicillin: Shows a synergistic effect when tested 1:1 with ampicillin; conditions: for MIC: Staphylococcus aureus, brain heart infusion broth, read-out: Minimum Inhibitory Concentration; for synergistic effect with ampicillin: tested 1:1 with ampicillin
Serratia marcescens = assay: Serial dilution-tube method, MIC; conditions: Serratia marcescens; brain heart infusion broth; read-out: Minimum Inhibitory Concentration
Enterobacter cloacae = assay: Serial dilution-tube method, MIC; conditions: Enterobacter cloacae; brain heart infusion broth; read-out: Minimum Inhibitory Concentration
Citrobacter diversus = assay: Serial dilution-tube method, MIC; conditions: Citrobacter koseri; brain heart infusion broth; read-out: Minimum Inhibitory Concentration
Proteus morgani = assay: Serial dilution-tube method, MIC; conditions: brain heart infusion broth; read-out: Minimum Inhibitory Concentration
Klebsiella pneumoniae = assay: Serial dilution-tube method, MIC; conditions: Klebsiella pneumoniae; brain heart infusion broth; read-out: Minimum Inhibitory Concentration
[5] = test system: Escherichia coli (Antibiotic Resistant); assay: Serial dilution-tube method, MIC; parameters: key to synergistic effect with cefazolin: b: Shows a synergistic effect when tested 1:1 with cefazolin; conditions: for MIC: Escherichia coli, brain heart infusion broth, read-out: Minimum Inhibitory Concentration
Staphylococcus aureus [6] = assay: Serial dilution-tube method, MIC; conditions: Staphylococcus aureus
Staphylococcus aureus [7] = assay: Standard disc-plate method, zone of inhibition; conditions: Staphylococcus aureus; 25 microgram discs
Description: as §1

Vibrio percolans = assay: Standard disc-plate method, zone of inhibition; conditions: Comamonas terrigena, 25 microgram discs
Description: as §1

[8] = brain heart infusion broth, read-out: Minimum Inhibitory Concentration

Structure (SMILES)	MIC (Escherichia coli [1]) [µg/mL]	MIC (Pseudomonas aeruginosa) [µg/mL]	zone of inhibition at 25 µg/disc [2] [mm]	zone of inhibition at 25 µg/disc (Bacillus subtilis) [mm]	zone of inhibition at 25 µg/disc (Micrococcus luteus) [mm]	zone of inhibition at 25 µg/disc (Escherichia coli [3]) [mm]	MIC [4] [µg/mL]	MIC (Serratia marcescens) [µg/mL]	MIC (Enterobacter cloacae) [µg/mL]	MIC (Citrobacter diversus) [µg/mL]	MIC (Proteus morgani) [µg/mL]	MIC (Klebsiella pneumoniae) [µg/mL]	MIC [5] [µg/mL]	MIC (Staphylococcus aureus [6]; [8]) [µg/mL]	MIC (Staphylococcus aureus [6]; serial dilution tube test, read-out: minimum inhibitory concentration) [µg/mL]	zone of inhibition at 25 µg/disc (Staphylococcus aureus [7]) [mm]	synergistic effect with ampicillin [4]	synergistic effect with cefazolin ([5]; tested 1:1 with cefazolin)	zone of inhibition at 25 µg/disc (Vibrio percolans) [mm]	synergistic effect with ampicillin (Escherichia coli [1]; tested 1:1 with ampicillin)
CC1C(=O)C2C(NC(=O)COc3ccccc3)C(=O)N2C1C(=O)OCOC(=O)C(C)(C)C (stereo not drawn) [PMA H POM CH3 O I, Pivaloyloxymethyl 2-Methyl-1-oxo-6-(2-phenoxyacetamido)carbapenam-3-carboxylate]	> 200	> 200	12	21	15	0	> 200	> 200	> 200	> 200	> 200	> 200	> 200	–	–	–	–	–	–	–
CC1C(=O)C2CC(=O)N2C1C(=O)OCOC(=O)C(C)(C)C (stereo not drawn) [H H POM CH3 O I, Pivaloyloxymethyl 2-Methyl-1-oxocarbapenam-3-carboxylate]	> 200	> 200	0	18	–	–	> 200	> 200	> 200	> 200	> 200	> 200	> 200	> 200	> 200	18	a	b	–	–
Cc1onc(-c2ccccc2)c1C(=O)NC1C(=O)N2C(C(=O)OCOC(=O)C(C)(C)C)C(C)C(O)C12 (stereo not drawn) [MPI H POM CH3 H OH I, Pivaloyloxymethyl 1-Hydroxy-2-methyl-6-(5-methyl-3-phenylisoxazole-4-carboxamido)carbapenam-3-carboxylate]	> 200	> 200	14	16	–	0	100	> 200	> 200	> 200	> 200	> 200	> 200	100 (≈ 200 µM)	–	15	–	–	13	–
CC(=O)OC1C(C)C(C(=O)O)N2C(=O)CC12 (stereo not drawn) [H H H CH3 H OAc I, 1-Acetoxy-2-methylcarbapenam-3-carboxylic Acid]	> 200	> 200	0	12	–	–	> 2000	> 200	> 200	> 200	> 200	> 200	> 200	> 200	–	0	–	–	–	–
CCN1CCN(C(=O)N[C@@H](C(=O)NC2C(=O)N3C(C(=O)OCOC(=O)C(C)(C)C)C(C)C(O)C23)c2ccccc2)C(=O)C1=O (stereo partly drawn) [EPA H POM CH3 H OH I, Pivaloyloxymethyl 1-Hydroxy-2-methyl-6-[2-phenyl-2-(4-ethyl-2,3-dioxopiperazine-1-carboxamido)acetamido]carbapenam-3-carboxylate]	6.25	200 (≈ 325 µM)	10	17	–	20	> 200	25 (≈ 40.6 µM)	12.5 (≈ 20.3 µM)	12.5 (≈ 20.3 µM)	≤ 0.39	12.5 (≈ 20.3 µM)	> 200	25 (≈ 40.6 µM)	–	18	–	–	24	–
COC1(NC(=O)COc2ccccc2)C(=O)N2C(C(=O)OCOC(=O)C(C)(C)C)C(C)C(O)C21 (stereo not drawn) [PMA OMe POM CH3 H OH I, pivaloyloxymethyl 1-hydroxy-6-methoxy-2-methyl-6-(2-phenoxyacetamido)carbapenam-3-carboxylate]	> 200	> 200	0	11	–	0	> 200	> 200	> 200	> 200	> 200	> 200	> 200	> 200	–	23	–	–	0	–
CC1C(O)C2CC(=O)N2C1C(=O)OCOC(=O)C(C)(C)C (stereo not drawn) [H H POM CH3 H OH I, Pivaloyloxymethyl 1-Hydroxy-2-methylcarbapenam-3-carboxylate]	> 200	> 200	0	0	–	–	> 200	> 200	> 200	> 200	> 200	> 200	> 200	> 200	–	0	–	–	–	–
CC(=O)OC1C(C)C(C(=O)OCOC(=O)C(C)(C)C)N2C(=O)C(NC(=O)COc3ccccc3)C12 (stereo not drawn) [PMA H POM CH3 H OAc I, Pivaloyloxymethyl 1-Acetoxy-2-methyl-6-(2-phenoxyacetamido)carbapenam-3-carboxylate]	> 200	> 200	0	16	0	0	> 200	> 200	> 200	> 200	> 200	> 200	> 200	> 200	–	11	–	–	–	–
CCN1CCN(C(=O)N[C@@H](C(=O)NC2C(=O)N3C(C(=O)O)C(C)C(O)C23)c2ccccc2)C(=O)C1=O (stereo partly drawn) [EPA H H CH3 H OH I, Sodium 1-Hydroxy-2-methyl-6-[2-phenyl-2-(4-ethyl-2,3-dioxopiperazine-1-carboxamido)acetamido]carbapenam-3-carboxylate]	100	> 200	9	16	–	16	200	> 200	50	> 200	50	> 200	> 200	50	–	15	–	–	25	–
COC1(NC(=O)COc2ccccc2)C(=O)N2C(C(=O)OCOC(=O)C(C)(C)C)C(C)C(=O)C21 (stereo not drawn) [PMA OMe POM CH3 O I, Pivaloyloxymethyl 6-Methoxy-2-methyl-1-oxo-6-(2-phenoxyacetamido)carbapenam-3-carboxylate]	> 200	> 200	0	11	–	0	> 200	> 200	> 200	> 200	> 200	> 200	> 200	> 200	–	0	a	–	0	–
CCN1CCN(C(=O)N[C@@H](C(=O)NC2C(=O)N3C(C(=O)OCOC(=O)C(C)(C)C)C(C)C(=O)C23)c2ccccc2)C(=O)C1=O (stereo partly drawn) [EPA H POM CH3 O I, Pivaloyloxymethyl 2-Methyl-1-oxo-6-[2-phenyl-2-(4-ethyl-2,3-dioxopiperazine-1-carboxamido)acetamido]carbapenam-3-carboxylate]	100	> 200	12	21	–	12	> 200	100 (≈ 163 µM)	200 (≈ 326 µM)	100 (≈ 163 µM)	25 (≈ 40.7 µM)	100 (≈ 163 µM)	> 200	100 (≈ 163 µM)	–	12	–	–	21	a
